Here are results for twelve molecules from patent US11957682B2, “Compounds and methods for regulating, limiting, or inhibiting AVIL expression” (University of Virginia Patent Foundation, priority 2017, dated 2024).

The test system of data set [1] is astrocyte cells (non-cancer control). Put plainly: IC50 for inhibiting cell growth in astrocyte cells (non-cancer control). The following applies: inhibition of cell growth. In kind it is cell-based, human. The method, then:
(§1) Cell Culture. The rhabdomyosarcoma cell lines RH30, RH18, and RD were cultured in RPMI-1640 medium with 10% FBS. RH18 was a gift from Dr. P. J. Houghton. Glioblastoma cell line U87 cells were cultured in Minimum Essential Medium Eagle (MEM), supplemented with 1 mM sodium pyruvate, 1% nonessential amino acids, 0.15% sodium bicarbonate, and 10% fetal bovine serum (FBS); T98G cells were cultured in MEM with 10% FBS; A172 cells were cultured in Dulbecco's modified Eagle's medium (DMEM) with 4.5 g/L glucose, and supplemented with 10% FBS; U251 cells were cultured in Roswell Park Memorial Institute medium with 5% FBS. Immortalized human astrocytes (a kind gift from Dr. Russ Pieper, University of California San Francisco) were grown in DMEM/F12 with 4.5 g/L of glucose, supplemented with 10% FBS. All cells were grown at 37° C. in 5% CO2-[…]. All cell lines unless specified were originally obtained from ATCC. They were not further authenticated.
(§2) In this example, samples of glioblastoma cells (U87) and astrocyte cells (non-cancer control) were exposed various disclosed compounds to determine the effectiveness of the compounds for inhibiting cell growth.

The subject of the next data set is glioblastoma cells (U87). Briefly: IC50 for inhibiting cell growth in glioblastoma cells (U87). In kind it is cell-based, human. The following applies: inhibition of cell growth. Here is the method:
as §1, §2

Data set [2] concerns the target T1, advillin recombinant protein (AVIL) (Homo sapiens, UniProt O75366).
T1 construct: MBP (N, cleaved yes); made in house; host or cells: E. coli BL21 (DE3)
T1 sequence (O75366 1-819): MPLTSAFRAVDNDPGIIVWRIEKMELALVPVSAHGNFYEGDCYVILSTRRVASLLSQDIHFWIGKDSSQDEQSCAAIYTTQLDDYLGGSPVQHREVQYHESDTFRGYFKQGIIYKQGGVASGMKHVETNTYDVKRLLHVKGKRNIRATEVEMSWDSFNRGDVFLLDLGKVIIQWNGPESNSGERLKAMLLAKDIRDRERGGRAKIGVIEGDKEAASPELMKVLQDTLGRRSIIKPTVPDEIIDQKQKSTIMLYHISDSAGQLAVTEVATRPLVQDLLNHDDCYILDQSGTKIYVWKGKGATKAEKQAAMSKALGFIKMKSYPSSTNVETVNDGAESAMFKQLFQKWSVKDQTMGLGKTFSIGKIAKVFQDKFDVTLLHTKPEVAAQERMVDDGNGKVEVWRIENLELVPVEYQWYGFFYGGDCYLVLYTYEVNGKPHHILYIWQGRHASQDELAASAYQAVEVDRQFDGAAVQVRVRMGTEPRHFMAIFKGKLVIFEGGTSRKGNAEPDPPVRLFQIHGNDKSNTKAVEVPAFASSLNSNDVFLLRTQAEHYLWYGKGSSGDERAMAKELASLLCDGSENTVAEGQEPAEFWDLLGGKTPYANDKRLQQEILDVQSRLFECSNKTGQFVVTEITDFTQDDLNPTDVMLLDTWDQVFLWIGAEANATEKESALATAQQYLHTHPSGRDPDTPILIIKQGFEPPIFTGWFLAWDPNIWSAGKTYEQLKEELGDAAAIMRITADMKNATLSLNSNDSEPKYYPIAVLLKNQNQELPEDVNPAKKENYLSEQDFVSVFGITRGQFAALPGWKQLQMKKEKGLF
Put plainly: Thermal shift assay. In kind it is binding. As to conditions: for binding with advillin recombinant protein: thermal shift assay. Here is the method:
Protein purification. The sequence for human Advillin (AVIL) was cloned into the pMAL-c4x vector. The corresponding plasmid was transformed into BL21 (DE3) cells. Expression of MBP-AVIL was induced at OD600≈0.7 by the addition of 1 mM IPTG, and continued for 18 hrs at 23° C. Harvested cells were subsequently resuspended in 20 mM Tris-HCl pH 7.4, 200 mM NaCl, 1 mM EDTA, 1 mM DTT (Wash Buffer), supplemented with Complete Protease Inhibitor Cocktail (Roche), lysed in Emulsiflex C3 (AVESTIN) and cell debris was removed by centrifugation. MBP-AVIL was immobilized on Amylose Resin (New England BioLabs) followed by extensive washing (>50 column volumes) with Wash Buffer. Protein was eluted with Wash Buffer supplemented with 10 mM Maltose. After overnight incubation with TEV protease, MBP-tag was removed by size exclusion on HiLoad 16/600 Superdex 200 pg columns, previously equilibrated to 20 mM HEPES, pH 7.4, 50 mM NaCl, 1 mM DTT (Protein Buffer). Recombinant AVIL was flash-frozen in liquid nitrogen and stored in −80° C.
Thermal shift assay. SYPRO Orange (ThermoFisher Scientific) was added to 0.5 mg/ml AVIL (in Protein Buffer) in a 1:4500 ratio. 2.5 uL increasing concentrations of candidate compounds were added to 22.5 μL of AVIL/SYPRO Orange mixture on a 96 well plate (10% final concentration of DMSO). Protein unfolding was measured in a CFX96 qPCR (Bio-Rad) instrument with 0.2° C./15 sec steps, over the range of 20-90° C.

For data set [3], the system named is GBM lines (U87, A172, U251, and T98G). Briefly: Cellular assays using GBM cell lines and immortalized astrocytes. It counts as cell-based, human. As to conditions: four GBM lines (U87, A172, U251, T98G) versus astrocytes. Here is the method: as §1
To investigate whether AVIL is a viable drug target, a platform of small-molecule microarray was utilized (Bradner et al., 2006a; Bradner et al., 2006b) in order to identify compounds that interact with the AVIL protein. 50,000 small molecules were screened with recombinant advillin protein, including commercially available compounds, products of diversity-oriented synthesis, and known bioactive compounds. From these compounds, 82 advillin-interacting compounds were identified (FIG. 7A). […] Pubchem ID for the three compounds are as follows: Compound A is CID 56750508, Compound B is CID 56890068, and Compound C is CID 70768068.

In data set [4] the test system is RH30 rhabdomyosarcoma cells. Briefly: Cell survival / crystal violet staining of RH30 cells. It counts as cell-based. As to conditions: 20 μM. The method, then:
as §1
(§3) RH30 and RD are rhabdomyosarcoma cells. MSC is mesenchymal stem cells, as a non-cancer control.

The next data set has as its system U87 cells. Put plainly: Microarray analysis of U87 cells treated with compounds (gene ontology, GSEA). It counts as cell-based, human. The following applies: gene set downregulated by siAVIL. The method, then:
(§4) The effect of the three compounds on LIN28B expression was tested. […] To test whether the compounds can trigger transcriptome response similar to siAVIL, a microarray analysis of the U87 cells treated with these compounds was performed. Strikingly, cells treated with all three compounds had similar transcriptome profiles when compared to that of the siAVIL transfected cells, by both gene ontology and Gene Set Enrichment analyses (example in FIGS. 7F and 7G).

Data set [5] has as its system RD rhabdomyosarcoma cells. Briefly: Cell survival / crystal violet staining of RD cells. In kind it is cell-based. As to conditions: 20 μM. The method, then:
as §1, §3

Data set [6] has as its system MSC mesenchymal stem cells (non-cancer control). Put plainly: Cell survival / crystal violet staining of MSC cells. It counts as cell-based. The following applies: 20 μM.
Excerpt: as §3

For a further data set, the system named is U87 xenograft. Put plainly: U87 xenograft model, intra-tumor injection. It counts as in vivo, NIH-III Nude mice. Here is the method: Astrocytes stably expressing AVIL or an empty vector were injected subcutaneously into the flanks of NIH-III Nude mice. Around 2 million cells were used per injection. The animals were monitored twice a week. For drug treatment, 1.5 million U87 cells were injected subcutaneously into the flanks of NIH-III Nude mice. Compound 56750508 was dissolved in 50% DMSO, 15% ethanol, and 35% water. After tumors became visible (around 2 weeks), 50 ul drug solution or solvent was injected intra-tumorly. Three injections were performed with two day intervals.
as §4

The mark [7] stands for this setting: three intra-tumor injections with two day intervals, versus solvent control, at harvest.

As for `Nc1cc(N2CCCC(CCCc3ccccc3)(C(=O)O)C2)nc(N)n1` (stereo not shown) [K], the IC50 (in general, the point on the concentration scale where inhibition reaches its midpoint) in [1] (Homo sapiens, Astrocyte) was found to be 34 µM; in the data set with glioblastoma cells (U87) (Homo sapiens), 39 µM.
Take `Cc1nccc(N2CCCC(CO)(CCCc3ccccc3)C2)n1` (stereo not shown) [Compound I]: the IC50 stood at 80 µM in data set [1] (Homo sapiens, Astrocyte) and 19 µM in the data set on glioblastoma cells (U87) (Homo sapiens).
For `c1ccc(CCC2CCN(CC3[C@H]4CNC[C@@H]34)CC2)cc1` (stereo partly shown) [Compound B], the “binding with advillin recombinant protein” value (from here on “binding”) in [2] was “confirmed binding”. In [3], the “IC50 values in GBM lines compared to astrocytes” value is “significantly different IC50 values”.
For `Nc1cc(N2CCCC(CO)(CCCc3ccccc3)C2)ncn1` (stereo not shown) [J], the 50% inhibitory concentration (IC50) in data set [1] (Homo sapiens, Astrocyte) is greater than 80 µM; in the data set on glioblastoma cells (U87) (Homo sapiens), 20 µM.
Consider `Nc1cc(N2CCCC(CO)(CCCc3ccccc3)C2)nc(N)n1` (stereo not shown) [H], for which the IC50 was found to be 59 µM in data set [1] and 8 µM with glioblastoma cells (U87).
For `CN(Cc1ccc(Oc2ccccc2)cc1)C(=O)C1C[C@@H](O)CN1` (stereo partly shown) [Compound C], the “binding” value in data set [2] was “confirmed binding”. In addition, in data set [3], the “IC50 values in GBM lines compared to astrocytes” value is “significantly different IC50 values”.
On to `Nc1nccc(N2CCCC(CCc3ccccc3)C2)n1` (stereo not shown) [E], for which the concentration for half-maximal inhibition (IC50) was 30 µM in data set [1] (Homo sapiens, Astrocyte) and 1 µM in the data set with glioblastoma cells (U87) (Homo sapiens).
Taken in the same sequence, the figures for `Nc1nccc(N2CCC(CO)(CCCc3ccccc3)CC2)n1` [F] were 28 µM and 4 µM.
For the molecule `Nc1nccc(N2CCCC(CO)(CCCc3ccccc3)C2)n1` (stereo not shown) [Compound A], in [4], the “effect on RH30 cells” value was “most if not all of the RH30 and RD cells were wiped out”. The GSEA enrichment score entry with U87 cells was “highest GSEA enrichment score”. In addition, the 50% inhibitory concentration (IC50) in data set [1] (Homo sapiens, Astrocyte) worked out at 55 µM; in the data set on glioblastoma cells (U87) (Homo sapiens) it was 9 µM. In addition, the “effect on RD cells” value in data set [5] was “most if not all of the RH30 and RD cells were wiped out”. Also, the “melting temperature (Tm) shift of AVIL protein” value in data set [2] (increasing concentrations of compound) is recorded as “dose-dependent melting temperature (Tm) shift”. In data set [2], the “binding” value was “confirmed binding”. The “effect on MSC cells” value in data set [6] was “no significant effect”. Further, the “IC50 values in GBM lines compared to astrocytes” value in data set [3] is “significantly different IC50 values”. For the same molecule, the “side effect in the animals” value in the data set with U87 xenograft (three injections) is listed as “did not observe any obvious side effect”. In the data set with U87 xenograft (setting [7]), the tumor volume entry is given as “significantly smaller”. In addition, the tumor weight result with U87 xenograft (setting [7]) is listed as “significantly smaller”.
As for `CCCC1(CO)CCCN(c2cc(N3CCN(C)CC3)nc(N)n2)C1` (stereo not shown) [L], the IC50 is greater than 80 µM in [1] (Homo sapiens, Astrocyte) and greater than 80 µM with glioblastoma cells (U87) (Homo sapiens).
For `Nc1cc(N2CCC(CO)(CCCc3ccccc3)CC2)nc(N)n1` [D], the IC50 in [1] (Homo sapiens, Astrocyte) is 51 µM; in the data set with glioblastoma cells (U87) (Homo sapiens), 2.5 µM.
For `Nc1cc(N2CCCC(CO)(CCCc3ccccc3)C2)nc(N)n1` (stereo not shown) [G], the IC50 is greater than 80 µM in [1] (Homo sapiens, Astrocyte) and 10 µM with glioblastoma cells (U87) (Homo sapiens).
